For eight compounds, TGI results are on record in PubChem BioAssay (NCI).

Each structure is given as a SMILES string.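 Where inhibition never reached the appropriate level, the endpoint shown equals the highest concentration tested. Otherwise, values were interpolated linearly from a five-concentration, 48-hour dose response in 96-well plates. Definition used: TGI = concentration required for complete inhibition of growth.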

What all share (experiment): NCI anticancer screen, dose series, 48 h
Experiment [1] relates to A549 NSCLC.
Experiment [2] relates to DU-145 prostate.
Experiment [3] deals with HCC-2998 colon.
Experiment [4] deals with HCT-15 colon.
Experiment [5] concerns HS 578T breast.
In experiment [6] the test system is HT29 colon.
In experiment [7] the test system is KM12 colon.
The test system of experiment [8] is NCI-H23 lung.
The test system of experiment [9] is NCI-H522 lung.
The test system of experiment [10] is NCI/ADR-RES ovarian.
Experiment [11] relates to OVCAR-8 ovarian.
Experiment [12] relates to SF-268 CNS.
Experiment [13] relates to SF-295 CNS.
In experiment [14] the test system is SK-MEL-5 melanoma.
The subject of experiment [15] is SK-OV-3 ovarian.
For experiment [16], the system named is SN12C renal.
Experiment [17] concerns SNB-75 CNS.
Experiment [18] deals with U251 CNS.
Experiment [19] deals with UACC-62 melanoma.

For the compound `CC(=O)N(C(=O)CC(=O)NNCc1ccccc1Cl)c1ccc(Cl)cc1`, the TGI in [1], in [2], in experiment [3], in experiment [4], in experiment [5] and in experiment [6] was over 10 µM each time. Further, the TGI in experiment [7], in experiment [8], in experiment [9], in experiment [10], in [11] and in experiment [12] was over 10 µM throughout. The TGI in experiment [13], in [14], in experiment [15], in [16], in experiment [17] and in experiment [18] was over 10 µM in each case. The TGI in experiment [19] was over 10 µM.
As for `OC1C2CCC3C2CC(C(O)(c2ccccc2)c2ccccc2)C13` (configuration not stated), the TGI in experiment [1], in experiment [2], in [3], in experiment [4], in experiment [5] and in experiment [6] was over 100 µM each time. For the same compound, the TGI in experiment [7], in experiment [8], in experiment [9], in experiment [10], in experiment [11] and in experiment [12] was over 100 µM each time. The TGI was over 100 µM in experiment [13]; over 100 µM in experiment [14]; over 100 µM in [15]; 47 µM in experiment [16]; 43.9 µM in experiment [17]; over 100 µM in experiment [18]. This compound also returned a TGI in [19] of over 100 µM.
`CC(=O)O[C@H]1C[C@H]2[C@@H]([C@H](OC(C)=O)C[C@@H]3CC4(CC[C@@]32C)OOC2(CCCCC2)OO4)[C@@H]2CC[C@H]([C@H](C)CCC(N)=O)[C@@]12C`: the TGI in experiment [1] came to 2.93 µM; in experiment [2], 3.52 µM; in experiment [3] it was 7.41 µM; in [4] it was 5.31 µM; in [5], 19.7 µM; in [6] it was 14.3 µM. Further, the TGI in experiment [7] amounted to 3.3 µM; in experiment [8], 2.83 µM; in experiment [9], 1.48 µM; in [10], 4.95 µM; in [11], 9.87 µM; in experiment [12] it was 3.47 µM. Further, the TGI in [13] was found to be 9.66 µM; in experiment [14], 5.24 µM; in experiment [15] it was 25.5 µM; in [16], 5.5 µM; in [17], 4.89 µM; in [18], 3.15 µM. In experiment [19], the TGI is 6.31 µM.
For the compound `O=c1oc2cc(O)ccc2c(O)c1C(c1ccc2ccccc2c1)c1c(O)c2ccc(O)cc2oc1=O`, the TGI was over 100 µM in [1]; over 100 µM in experiment [2]; over 100 µM in experiment [3]; over 100 µM in experiment [4]; 59.7 µM in [5]; over 100 µM in experiment [6]. In addition, the TGI in experiment [7] was over 100 µM; in [8] it was over 100 µM; in experiment [9] it was over 100 µM; in experiment [10] it was over 100 µM; in experiment [11], over 100 µM; in experiment [12] it was 33.5 µM. For the same compound, the TGI in [13] is over 100 µM; in experiment [14], over 100 µM; in experiment [15], over 100 µM; in experiment [16], over 100 µM; in experiment [17], 37.7 µM; in [18] it was over 100 µM. Besides, the TGI in experiment [19] was over 100 µM.
Take `Cc1ccc(N/N=C/C2=CC(C)(C)C(C#N)(C#N)C(O)=C2C#N)cc1`: the TGI in experiment [1], in experiment [2], in [3], in experiment [5], in [6] and in experiment [7] was over 100 µM throughout. Also, the TGI in [8], in experiment [9], in experiment [10], in experiment [11], in experiment [12] and in experiment [13] was over 100 µM in each case. Further, the TGI in experiment [14], in experiment [15], in experiment [16], in experiment [17] and in experiment [19] was over 100 µM throughout.
With `C=CC(C)CCC(C/C=C(\C)CCCC(C)C)C(=C)CCCC(C)C` (configuration not stated), the TGI in [1], in experiment [2], in experiment [3], in experiment [4], in experiment [5] and in [7] was over 100 µM each time. Moreover, the TGI in experiment [8], in [9], in experiment [10], in [11], in experiment [12] and in [13] was over 100 µM throughout. The TGI in [14], in [15], in experiment [16], in experiment [17], in [18] and in [19] was over 100 µM in each case.
In the case of `CC1(C)CC(=O)c2c([nH]c(=S)c(C#N)c2-c2ccc(Br)cc2)C1`, the TGI in [1], in experiment [2], in experiment [3], in experiment [4], in experiment [5] and in [6] was over 100 µM in each case. In addition, the TGI in experiment [8], in experiment [9], in [10], in [11], in [12] and in experiment [13] was over 100 µM in each case. The TGI in experiment [14], in experiment [15], in experiment [16], in experiment [17], in [18] and in [19] was over 100 µM in each case.
On to `Cc1cccc(-c2cccc(COCc3cccc(-c4cccc(CO)n4)n3)n2)n1`, for which the TGI in experiment [1], in experiment [2], in [3], in experiment [4], in experiment [5] and in [6] was over 50 µM in each case. Further, the TGI in experiment [7] is over 50 µM; in experiment [9], over 50 µM; in experiment [10], over 50 µM; in experiment [11], over 50 µM; in [12], over 50 µM; in experiment [13], over 5 µM. Besides, the TGI in [14], in experiment [15], in [16], in experiment [17], in experiment [18] and in experiment [19] was over 50 µM in each case.
